We go through one compound from patent publication EP0919233A1, “THERAPEUTIC AGENT FOR KIDNEY DISEASES” (KYOWA HAKKO KOGYO KABUSHIKI KAISHA, priority 1996, dated 1997).

Holding throughout (format): in vivo
One series concerns dd-strain male mice. Kind of series: Acute Toxicity Test (minimum lethal dose). The note with it: three mice per group, mortality observed seven days after administration. As for the experimental part: A test compound was orally or intraperitoneally administered to groups of dd-strain male mice weighing 20 ± 1 g, each group consisting of three mice. […] The MLD was >1000 mg/kg for oral administration of Compound 10 and was >100 mg/kg for intraperitoneal administration of Compound 10.

A further series relates to Diabetic Nephropathy. Description: Effect on Increase of Albumin Excretion in Diabetic Nephropathy (streptozotocin-induced). The note with it: STZ-diabetic ddY-strain male mice, 24 hr urine twelve weeks after STZ, mean ± standard error, control group 333 ± 30, normal group 80 ± 3. On the procedure:
In this test, ddY-strain male mice weighing 25-28 g were used. Diabetes was induced according to the method of Tsuchida, et al. [Jin To Toseki (Kidney and Dialysis), 31, 363-366 (1991)]. That is, streptozotocin (5 mg/ml, Sigma; hereinafter referred to as STZ) dissolved in 0.05 M citrate buffer was intravenously injected into mice through the tail vein at a dose of 10 ml/kg. On the fourth day after the STZ administration, 30 µl of blood was collected from the tail vein of the mice and the blood glucose was determined using Glutestsensor (Sanwa Kagaku). The animals were divided into three groups based on the blood glucose level. Twelve weeks after the STZ administration, each mouse was put into a metabolic cage and received oral administration of 0.5 ml/10 g of distilled water twice at an interval of 12 hours. Urine was collected for 24 hours, and after measurement of the volume, the urine was centrifuged under cooling (3000 rpm, 4°C) for 5 minutes. The supernatant was analyzed for urinary albumin content using an autoanalyzer (Olympus). A test compound was orally administered once a day for 11 weeks, starting on the fifth day after the STZ administration. […] Statistical significance was evaluated by Aspin-Welch's test for the difference between the control group and the normal group and by Steel's test for the difference between the control group and the test compound-administered group.

In the next series the test system is Masugi Nephritis. Kind of series: Effect on Increase of Albumin Excretion in Masugi Nephritis. To be noted: ddY-strain male mice, 1 mg/kg orally once a day from the previous immunization, 24 hr urine four weeks after second NT injection, mean ± standard error, n=11; control group 134 ± 9, normal group 85 ± 5. As for the experimental part: Mouse nephrotoxin (hereinafter referred to as NT) was prepared according to the method of Ito, et al. [The Japanese Journal of Nephrology, 23, 25-36 (1981)]. That is, glomerular basement membrane (hereinafter referred to as GBM) was isolated from mouse kidney and digested with trypsin (Sigma). The digested GBM was subjected to ultracentrifugation under cooling, and the supernatant was dialyzed against distilled water, followed by lyophilization. The lyophile product was intracutaneously injected as an antigen into four foot pads of a rabbit together with Freund's complete adjuvant (Iatron; hereinafter referred to as FCA) once a week for 4 weeks for immunization. The whole blood was drawn from the immunized rabbit, and serum was separated and inactivated at 56°C for 30 minutes to prepare NT.
In this test, ddY-strain male mice weighing 29-36 g were used. For previous immunization, 0.25 ml of an FCA emulsion containing 0.25 mg of rabbit immunoglobulin-globulin (IgG, Sigma) was intraperitoneally injected into mice. Nephritis was induced by intravenous injection of 0.075 ml of NT through the tail vein 4 and 11 days after the previous immunization. […] The supernatant was analyzed for urinary albumin content using an autoanalyzer (Olympus). […]
The results are shown in Table 5 as the means ± standard error of each group consisting of 11 mice. Statistical significance was evaluated by Student's t-test.

Regarding `CCOc1cc2nc(N3CCOCC3)nc(N3CCC(n4c(=O)c5cc(C)ccc5n(C)c4=O)CC3)c2cc1OCC.Cl` [Compound 10, 3-[1-(6,7-Diethoxy-2-morpholino-4-quinazolinyl)-4-piperidinyl]-1,2,3,4-tetrahydro-1,6-dimethyl-2,4-dioxoquinazoline hydrochloride], the “minimum lethal dose (MLD)” value is > 100 mg/kg in the series with dd-strain male mice (intraperitoneal administration) and > 1000 mg/kg with dd-strain male mice (oral administration). For the same compound, the “Urinary Albumin Content” value in the series with Diabetic Nephropathy (1 mg/kg orally once a day for 11 weeks) is 244 ± 16 mg/kg/24 hr; in the series on Diabetic Nephropathy (10 mg/kg orally once a day for 11 weeks) it was 200 ± 13 mg/kg/24 hr; in the series with Masugi Nephritis it was 96 ± 7 mg/kg/24 hr.
